The record followed here is US20150031668A1, “CHROMAN DERIVATIVES AS TRPM8 INHIBITORS” (AMGEN INC., priority 2013, published 2015).

Counter-ions that a name gives are not always drawn.

For the assay, the target named is T1, human TRPM8 (Homo sapiens, UniProt Q7Z2W7).
T1 construct: expressed in transfected cells; host or cells: Chinese hamster ovary (CHO) cells, T-REx tetracycline-inducible expression system (Invitrogen); co-transfected with pcDNA3.1 aequorin
T1 sequence (Q7Z2W7 whole entry): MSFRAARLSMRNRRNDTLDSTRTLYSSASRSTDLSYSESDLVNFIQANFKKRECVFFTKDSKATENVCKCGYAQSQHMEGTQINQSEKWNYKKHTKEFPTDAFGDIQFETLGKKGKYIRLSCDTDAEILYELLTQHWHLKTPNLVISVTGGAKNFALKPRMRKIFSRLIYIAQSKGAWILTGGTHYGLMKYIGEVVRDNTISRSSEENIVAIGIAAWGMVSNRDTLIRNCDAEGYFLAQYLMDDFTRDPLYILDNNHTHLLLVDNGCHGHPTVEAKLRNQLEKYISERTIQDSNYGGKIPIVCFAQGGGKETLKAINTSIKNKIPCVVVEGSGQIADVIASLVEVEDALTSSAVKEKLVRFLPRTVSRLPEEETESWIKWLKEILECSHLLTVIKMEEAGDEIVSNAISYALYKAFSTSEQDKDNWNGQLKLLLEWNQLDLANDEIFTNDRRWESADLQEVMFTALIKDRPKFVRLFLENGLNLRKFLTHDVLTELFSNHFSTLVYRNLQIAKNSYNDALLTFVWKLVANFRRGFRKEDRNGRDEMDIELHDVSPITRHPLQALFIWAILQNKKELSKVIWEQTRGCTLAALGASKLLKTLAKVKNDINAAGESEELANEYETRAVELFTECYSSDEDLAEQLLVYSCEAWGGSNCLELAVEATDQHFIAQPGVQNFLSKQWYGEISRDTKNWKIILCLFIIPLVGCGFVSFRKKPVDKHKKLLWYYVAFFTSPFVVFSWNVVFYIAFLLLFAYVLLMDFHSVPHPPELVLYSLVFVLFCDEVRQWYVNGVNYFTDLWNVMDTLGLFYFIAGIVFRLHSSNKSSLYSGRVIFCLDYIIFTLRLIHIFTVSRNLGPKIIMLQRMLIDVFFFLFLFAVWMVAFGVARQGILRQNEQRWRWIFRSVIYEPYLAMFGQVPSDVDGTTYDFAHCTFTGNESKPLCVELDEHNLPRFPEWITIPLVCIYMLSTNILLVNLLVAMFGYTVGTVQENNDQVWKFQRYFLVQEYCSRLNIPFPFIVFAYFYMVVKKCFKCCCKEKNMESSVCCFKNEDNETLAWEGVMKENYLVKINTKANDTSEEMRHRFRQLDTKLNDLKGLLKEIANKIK
The assay can be described thus: Luminescence readout assay for measuring intracellular calcium (aequorin, CHO cells expressing human TRPM8; icilin, L-menthol or cold activation). The note with it: CHO cells expressing human TRPM8, icilin activation (1 μM), aequorin luminescence; read-out: hTRPM8 IC50. The assay is classed as cell-based. Put shortly:
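Activation was by 1 μM icilin, 100 μM L-menthol (test compound 2.5 min ahead) or cold buffer below 10° C (compound 1 min ahead). Calcium rise measured as aequorin luminescence in CHO cells with tetracycline-inducible human TRPM8.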
Background: Calcium assays in cells follow changes in intracellular calcium, usually with a dye or a luminescent sensor.
Regarding `O=C(NC1(c2ccc(C(F)(F)F)cc2)CCOc2cccnc21)c1ccc2c(c1)CNC2=O` (stereo not shown) [Example 80, 1-oxo-N-(4-(4-(trifluoromethyl)phenyl)-3,4-dihydro-2H-pyrano[3,2-b]pyridin-4-yl)isoindoline-5-carboxamide], the IC50 turned out to be 0.021 µM.
Turning to `CCOC(=O)c1cc(C(=O)N[C@]2(c3ccc(OC(F)(F)F)c(F)c3)CCOc3cccnc32)cc(C(=O)OCC)c1` [Example 192, (S)-diethyl 5-((4-(3-fluoro-4-(trifluoromethoxy)phenyl)-3,4-dihydro-2H-pyrano[3,2-b]pyridin-4-yl)carbamoyl) isophthalate], the IC50 was found to be 0.094 µM.
`O=C(O)c1cnc(C(=O)N[C@]2(c3ccc(OC(F)(F)F)c(F)c3)CCOc3cccnc32)cn1` [Example 177, (S)-5-((4-(3-fluoro-4-(trifluoromethoxy)phenyl)-3,4-dihydro-2H-pyrano[3,2-b]pyridin-4-yl)carbamoyl) pyrazine-2-carboxylic acid]: the IC50 turned out to be 0.209 µM.
For `Cc1cc([C@@]2(NC(=O)c3ccc(=O)[nH]c3)CCOc3cccnc32)ccc1OC(F)(F)F` [Example 199, (S)-N-(4-(3-methyl-4-(trifluoromethoxy)phenyl)-3,4-dihydro-2H-pyrano[3,2-b]pyridin-4-yl)-6-oxo-1,6-dihydropyridine-3-carboxamide], the IC50 came to 0.012 µM.
As for `Cn1nccc1C(=O)N[C@]1(c2ccc(OC(F)(F)F)cc2)CCOc2cccnc21` [Example 228, (S)-1-methyl-N-(4-(4-(trifluoromethoxy)phenyl)-3,4-dihydro-2H-pyrano[3,2-b]pyridin-4-yl)-lH-pyrazole-5-carboxamide formate_], the IC50 stood at 0.105 µM.
In the case of `Cn1ccc2cc(C(=O)N[C@]3(c4ccc(C(F)(F)F)cc4)CCOc4cccnc43)ccc21` [Example 42, (S)-1-methyl-N-(4-(4-(trifluoromethyl)phenyl)-3,4-dihydro-2H-pyrano[3,2-b]pyridin-4-yl)-1H-indole-5-carboxamide], the IC50 stood at 0.024 µM.
As for `O=C(N[C@]1(c2ccc(-c3ccc(N4CCOCC4)cc3)cc2)CCOc2cccnc21)c1ccc(F)cc1` [Example 133, (S)-4-fluoro-N-(4-(4′-morpholino-[1,1′-biphenyl]-4-yl)-3,4-dihydro-2H-pyrano[3,2-b]pyridin-4-yl)benzamide], the IC50 was 0.156 µM.
For the molecule `COc1ccncc1-c1ccc([C@@]2(NC(=O)c3ccc(F)cc3)CCOc3cccnc32)cc1` [Example 130, (S)-4-fluoro-N-(4-(4-(4-methoxypyridin-3-yl)phenyl)-3,4-dihydro-2H-pyrano[3,2-b]pyridin-4-yl)benzamide], the IC50 came out at 1 µM.
Take `O=C(NC1(c2ccccc2)CCOc2cccnc21)c1ccc(F)cc1` (stereo not shown) [Example 11, 4-fluoro-N-(4-phenyl-3,4-dihydro-2H-pyrano[3,2-b]pyridin-4-yl)benzamide]: the IC50 is 2.57 µM.
On to `Cn1cc2c(C(=O)N[C@]3(c4ccc(OC(F)(F)F)cc4)CCOc4cccnc43)cccc2n1` [Example 264, (S)-2-methyl-N-(4-(4-(trifluoromethoxy)phenyl)-3,4-dihydro-2H-pyrano[3,2-b]pyridin-4-yl)-2H-indazole-4-carboxamide formate], for which the half-maximal inhibitory concentration (IC50) is 0.074 µM.
Under `COC(=O)c1cccc(C(=O)N[C@]2(c3ccc(OC(F)(F)F)c(F)c3)CCOc3cccnc32)c1` [Example 280, (S)-methyl 3-((4-(3-fluoro-4-(trifluoromethoxy)phenyl)-3,4-dihydro-2H-pyrano[3,2-b]pyridin-4-yl)carbamoyl) benzoate] stands 0.026 µM; under `O=C(N[C@]1(c2ccc(OC(F)(F)F)c(F)c2)CCOc2cccnc21)c1ccc2cc(C(=O)O)[nH]c2c1` [Example 325, (S)-6-((4-(3-fluoro-4-(trifluoro-methoxy)phenyl)-3,4-dihydro-2H-pyrano[3,2-b]pyridin-4-yl)carbamoyl)-1H-indole-2-carboxylic acid], 0.118 µM.
Regarding `COc1cccc(-c2ccc([C@@]3(NC(=O)c4ccc(F)cc4)CCOc4cccnc43)cc2)c1O` [Example 135, (S)-4-fluoro-N-(4-(2′-hydroxy-3′-methoxy-[1,1′-biphenyl]-4-yl)-3,4-dihydro-2H-pyrano[3,2-b]pyridin-4-yl)benzamide], the IC50 stood at 0.113 µM.
As to `O=C(N[C@]1(c2ccc(OC(F)(F)F)cc2)CCOc2cccnc21)c1ccc2nccn2c1` [Example 240, (S)-N-(4-(4-(trifluoromethoxy)phenyl)-3,4-dihydro-2H-pyrano[3,2-b]pyridin-4-yl)imidazo[1,2-a] pyridine-6-carboxamide formate], the IC50 was 0.0406 µM.
For `O=C(N[C@]1(c2ccc(OC(F)(F)F)c(F)c2)CCOc2cccnc21)N1CCC1` [Example 105, (S)-N-(4-(3-fluoro-4-(trifluoromethoxy)phenyl)-3,4-dihydro-2H-pyrano[3,2-b]pyridin-4-yl)azetidine-1-carboxamide], the IC50 worked out at 0.404 µM.
Turning to `COC(=O)c1cc(C(=O)N[C@]2(c3ccc(OC(F)(F)F)c(F)c3)CCOc3cccnc32)ccc1OC` [Example 182, (S)-methyl 5-((4-(3-fluoro-4-(trifluoromethoxy)phenyl)-3,4-dihydro-2H-pyrano[3,2-b]pyridin-4-yl)carbamoyl)-2-methoxybenzoate], the IC50 came to 0.036 µM.
For the molecule `O=C(N[C@]1(c2ccc(OC(F)(F)F)c(F)c2)CCOc2cccnc21)c1ccc(C(=O)O)c(C2CC2)c1` [Example 300, (S)-2-cyclopropyl-4-((4-(3-fluoro-4-(trifluoromethoxy)phenyl)-3,4-dihydro-2H-pyrano[3,2-b]pyridin-4-yl)carbamoyl)benzoic acid], the IC50 is 0.012 µM.
Regarding `COc1ncc(-c2ccc([C@@]3(NC(=O)c4ccc(F)cc4)CCOc4cccnc43)cc2)cn1` [Example 127, (S)-4-fluoro-N-(4-(4-(2-methoxypyrimidin-5-yl)phenyl)-3,4-dihydro-2H-pyrano[3,2-b]pyridin-4-yl)benzamide], the IC50 turned out to be 0.336 µM.
With `N#Cc1ccc(NC(=O)N[C@]2(c3ccc(OC(F)(F)F)c(F)c3)CCOc3cccnc32)cc1` [Example 68, (S)-1-(4-cyanophenyl)-3-(4-(3-fluoro-4-(trifluoromethoxy)phenyl)-3,4-dihydro-2H-pyrano[3,2-b]pyridin-4-yl)urea], the IC50 was 0.023 µM.
On to `O=C(N[C@]1(c2ccc(OC(F)(F)F)cc2)CCOc2cccnc21)c1ccc2cccnc2c1` [Example 254, (S)-N-(4-(4-(trifluoromethoxy)phenyl)-3,4-dihydro-2H-pyrano[3,2-b]pyridin-4-yl)quinoline-7-carboxamide fonnate], for which the IC50 was found to be 0.025 µM.
For the molecule `Cn1cc(C(=O)O)cc1C(=O)N[C@]1(c2ccc(OC(F)(F)F)c(F)c2)CCOc2cccnc21` [Example 335, (S)-5-((4-(3-fluoro-4-(trifluoromethoxy)phenyl)-3,4-dihydro-2H-pyrano[3,2-b]pyridin-4-yl)carbamoyl)-1-methyl-1H-pyrrole-3-carboxylic acid], the IC50 worked out at 0.051 µM.
Regarding `COC(=O)c1ccc(C(=O)N[C@]2(c3ccc(OC(F)(F)F)c(F)c3)CCOc3cccnc32)cc1NC(C)=O` [Example 295, (S)-methyl 2-acetamido-4-((4-(3-fluoro-4-(trifluoromethoxy)phenyl)-3,4-dihydro-2H-pyrano[3,2-b]pyridin-4-yl)carbamoyl)benzoate], the IC50 stood at 0.015 µM.
Regarding `Nc1ccc(C(=O)N[C@]2(c3ccc(OC(F)(F)F)c(F)c3)CCOc3cccnc32)nc1` [Example 284, (S)-5-amino-N-(4-(3-fluoro-4-(trifluoromethoxy)phenyl)-3,4-dihydro-2H-pyrano[3,2-b]pyridin-4-yl)picolinamide], the IC50 was 0.006 µM.
Turning to `O=C(NC1(c2ccc(C(F)(F)F)cc2)CCCc2cccnc21)c1ccc(=O)[nH]c1` (stereo not shown) [Example 31, 6-oxo-N-(8-(4-(trifluoromethyl)phenyl)-5,6,7,8-tetrahydroquinolin-8-yl)-1,6-dihydropyridine-3-carboxamide], the IC50 is 0.784 µM.
Consider `O=C(N[C@]1(c2ccc(OC(F)(F)F)c(F)c2)CCOc2cccnc21)N1CCC(F)(F)CC1` [Example 100], for which the IC50 came to 0.187 µM.
`COc1cc2cc(C(=O)N[C@]3(c4ccc(OC(F)(F)F)cc4)CCOc4cccnc43)[nH]c2cn1` [Example 274, (S)-5-methoxy-N-(4-(4-(trifluoromethoxy)phenyl)-3,4-dihydro-2H-pyrano[3,2-b]pyridin-4-yl)-1H-pyrrolo[2,3-c] pyridine-2-carboxamide formate]: the IC50 stood at 0.189 µM.
Regarding `O=C(NC1(c2ccccc2)CCOc2cccnc21)c1ccc2[nH]c(=O)oc2c1` (stereo not shown) [Example 26, 2-oxo-N-(4-phenyl-3,4-dihydro-2H-pyrano[3,2-b]pyridin-4-yl)-2,3-dihydrobenzo[d]oxazole-6-carboxamide], the IC50 is 0.014 µM.
Turning to `Cc1ccc(-c2ccc([C@@]3(NC(=O)c4ccc(F)cc4)CCOc4cccnc43)cc2)cc1N` [Example 148, (S)-N-(4-(3′-amino-4′-methyl-[1,1′-biphenyl]-4-yl)-3,4-dihydro-2H-pyrano[3,2-b]pyridin-4-yl)-4-fluorobenzamide], the IC50 amounted to 0.77 µM.
To `O=C(N[C@]1(c2ccc(OC(F)(F)F)cc2F)CCOc2cccnc21)c1ccc(=O)[nH]c1` [Example 173, (S)-N-(4-(2-fluoro-4-(trifluoromethoxy)phenyl)-3,4-dihydro-2H-pyrano[3,2-b]pyridin-4-yl)-6-oxo-1,6-dihydropyridine-3-carboxamide] belongs 0.475 µM.
In the case of `O=C(N[C@]1(c2ccc(OC(F)(F)F)cc2)CCOc2cccnc21)c1cocn1` [Example 226, (S)-N-(4-(4-(trifluoromethoxy)phenyl)-3,4-dihydro-2H-pyrano[3,2-b]pyridin-4-yl)oxazole-4-carboxamide formate], the IC50 came out at 0.15 µM.
In the case of `O=C(N[C@]1(c2ccc(OC(F)(F)F)c(F)c2)CC(=O)c2cccnc21)c1ccc(=O)[nH]c1` [Example 165, (S)-N-(7-(3-fluoro-4-(trifluoromethoxy)phenyl)-5-oxo-6,7-dihydro-5H-cyclopenta[b]pyridin-7-yl)-6-oxo-1,6-dihydropyridine-3-carboxamide], the IC50 was found to be 0.531 µM.

One may read the IC50 as the concentration at which inhibition is half-maximal.
